# Source: ChEMBL document CHEMBL4011590, “Structure-activity relationship studies on 3,5-dinitrophenyl tetrazoles as antitubercular agents” (Eur J Med Chem, 2017)
# How the values were obtained:
# Klebsiella pneumoniae [1] = test: Antibacterial activity against extended spectrum beta-lactamase producing Klebsiella pneumoniae HK14368/08 after 48 hrs by broth microdilution method; assay type: functional; details: HK14368/08, 48 h
# Mycobacterium kansasii [2] = test: Antimycobacterial activity against Mycobacterium kansasii CNCTC My 235/80 after 14 days by micromethod; assay type: functional; details: CNCTC My 235/80, 336 h
# Candida albicans [3] = test: Antifungal activity against Candida albicans ATCC 44859 after 24 hrs by broth microdilution method; assay type: functional; details: ATCC 44859, 24 h
# Candida albicans [4] = test: Antifungal activity against Candida albicans ATCC 44859 after 48 hrs by broth microdilution method; assay type: functional; details: ATCC 44859, 48 h
# Escherichia coli [5] = test: Antibacterial activity against Escherichia coli ATCC 8739 after 24 hrs by broth microdilution method; assay type: functional; details: ATCC 8739, 24 h
# Mycobacterium kansasii [6] = test: Antimycobacterial activity against Mycobacterium kansasii isolate 6509/96 after 7 days by micromethod; assay type: functional; details: isolate 6509/96, 168 h
# [7] = tested on: Staphylococcus epidermidis; test: Antibacterial activity against Staphylococcus epidermidis HK6966/08 after 24 hrs by broth microdilution method; assay type: functional; details: HK6966/08, 24 h
# [8] = tested on: Trichophyton mentagrophytes; test: Antifungal activity against Trichophyton mentagrophytes 445 after 120 hrs by broth microdilution method; assay type: functional; details: Trichophyton mentagrophytes, 445, 120 h
# Klebsiella pneumoniae [9] = test: Antibacterial activity against Klebsiella pneumoniae HK11750/08 after 24 hrs by broth microdilution method; assay type: functional; details: HK11750/08, 24 h
# Klebsiella pneumoniae [10] = test: Antibacterial activity against Klebsiella pneumoniae HK11750/08 after 48 hrs by broth microdilution method; assay type: functional; details: HK11750/08, 48 h
# Mycobacterium kansasii [11] = test: Antimycobacterial activity against Mycobacterium kansasii isolate 6509/96 after 14 days by micromethod; assay type: functional; details: isolate 6509/96, 336 h
# CHO-K1 = test: Cytotoxicity against CHOK1 cells after 24 hrs by MTT assay; assay type: cell-based; details: Cricetulus griseus, CHO-K1, 24 h
# [12] = tested on: Mycobacterium tuberculosis; test: Antimycobacterial activity against Mycobacterium tuberculosis H37Rv CNCTC My 331/88 after 14 days by micromethod; assay type: functional; details: H37Rv CNCTC My 331/88, 336 h
# Pichia kudriavzevii [13] = test: Antifungal activity against Candida krusei E28 after 24 hrs by broth microdilution method; assay type: functional; details: E28, 24 h
# Pseudomonas aeruginosa [14] = test: Antibacterial activity against Pseudomonas aeruginosa ATCC 9027 after 24 hrs by broth microdilution method; assay type: functional; details: ATCC 9027, 24 h
# Aspergillus fumigatus [15] = test: Antifungal activity against Aspergillus fumigatus 231 after 48 hrs by broth microdilution method; assay type: functional; details: Aspergillus fumigatus, 231, 48 h
# Mycobacterium avium [16] = test: Antimycobacterial activity against Mycobacterium avium CNCTC My 330/80 after 21 days by micromethod; assay type: functional; details: CNCTC My 330/80, 504 h
# Nakaseomyces glabratus [17] = test: Antifungal activity against Candida glabrata 20/I after 48 hrs by broth microdilution method; assay type: functional
# Klebsiella pneumoniae [18] = test: Antibacterial activity against extended spectrum beta-lactamase producing Klebsiella pneumoniae HK14368/08 after 24 hrs by broth microdilution method; assay type: functional; details: HK14368/08, 24 h
# Enterococcus sp. [19] = test: Antibacterial activity against Enterococcus sp. HK14365/08 after 48 hrs by broth microdilution method; assay type: functional; details: HK14365/08, 48 h
# Staphylococcus aureus [20] = test: Antibacterial activity against Staphylococcus aureus ATCC 6538 after 24 hrs by broth microdilution method; assay type: functional; details: ATCC 6538, 24 h
# Escherichia coli [21] = test: Antibacterial activity against Escherichia coli ATCC 8739 after 48 hrs by broth microdilution method; assay type: functional; details: ATCC 8739, 48 h
# Mycobacterium avium [22] = test: Antimycobacterial activity against Mycobacterium avium CNCTC My 330/80 after 14 days by micromethod; assay type: functional; details: CNCTC My 330/80, 336 h
# Aspergillus fumigatus [23] = test: Antifungal activity against Aspergillus fumigatus 231 after 24 hrs by broth microdilution method; assay type: functional; details: Aspergillus fumigatus, 231, 24 h
# Pseudomonas aeruginosa [24] = test: Antibacterial activity against Pseudomonas aeruginosa ATCC 9027 after 48 hrs by broth microdilution method; assay type: functional; details: ATCC 9027, 48 h
# [25] = tested on: Trichophyton mentagrophytes; test: Antifungal activity against Trichophyton mentagrophytes 445 after 72 hrs by broth microdilution method; assay type: functional; details: Trichophyton mentagrophytes, 445, 72 h
# Trichosporon asahii [26] = test: Antifungal activity against Trichosporon asahii 1188 after 48 hrs by broth microdilution method; assay type: functional; details: Trichosporon asahii, 1188, 48 h
# [27] = tested on: Mycobacterium tuberculosis; test: Antimycobacterial activity against Mycobacterium tuberculosis H37Rv CNCTC My 331/88 after 21 days by micromethod; assay type: functional; details: H37Rv CNCTC My 331/88, 504 h
# Enterococcus sp. [28] = test: Antibacterial activity against Enterococcus sp. HK14365/08 after 24 hrs by broth microdilution method; assay type: functional; details: HK14365/08, 24 h
# Staphylococcus aureus [29] = test: Antibacterial activity against methicillin-resistant Staphylococcus aureus HK5996/08 after 48 hrs by broth microdilution method; assay type: functional; details: HK5996/08, 48 h
# Lichtheimia corymbifera [30] = test: Antifungal activity against Absidia corymbifera 272 after 24 hrs by broth microdilution method; assay type: functional; details: Lichtheimia corymbifera, 272, 24 h
# Nakaseomyces glabratus [31] = test: Antifungal activity against Candida glabrata 20/I after 24 hrs by broth microdilution method; assay type: functional
# Candida tropicalis [32] = test: Antifungal activity against Candida tropicalis 156 after 24 hrs by broth microdilution method; assay type: functional; details: Candida tropicalis, 156, 24 h
# Trichosporon asahii [33] = test: Antifungal activity against Trichosporon asahii 1188 after 24 hrs by broth microdilution method; assay type: functional; details: Trichosporon asahii, 1188, 24 h
# [34] = tested on: Staphylococcus epidermidis; test: Antibacterial activity against Staphylococcus epidermidis HK6966/08 after 48 hrs by broth microdilution method; assay type: functional; details: HK6966/08, 48 h
# Staphylococcus aureus [35] = test: Antibacterial activity against methicillin-resistant Staphylococcus aureus HK5996/08 after 24 hrs by broth microdilution method; assay type: functional; details: HK5996/08, 24 h
# Mycobacterium kansasii [36] = test: Antimycobacterial activity against Mycobacterium kansasii CNCTC My 235/80 after 21 days by micromethod; assay type: functional; details: CNCTC My 235/80, 504 h
# Lichtheimia corymbifera [37] = test: Antifungal activity against Absidia corymbifera 272 after 48 hrs by broth microdilution method; assay type: functional; details: Lichtheimia corymbifera, 272, 48 h
# Candida tropicalis [38] = test: Antifungal activity against Candida tropicalis 156 after 48 hrs by broth microdilution method; assay type: functional; details: Candida tropicalis, 156, 48 h
# Mycobacterium kansasii [39] = test: Antimycobacterial activity against Mycobacterium kansasii isolate 6509/96 after 21 days by micromethod; assay type: functional; details: isolate 6509/96, 504 h
# Mycobacterium kansasii [40] = test: Antimycobacterial activity against Mycobacterium kansasii CNCTC My 235/80 after 7 days by micromethod; assay type: functional; details: CNCTC My 235/80, 168 h
# Staphylococcus aureus [41] = test: Antibacterial activity against Staphylococcus aureus ATCC 6538 after 48 hrs by broth microdilution method; assay type: functional; details: ATCC 6538, 48 h
# Pichia kudriavzevii [42] = test: Antifungal activity against Candida krusei E28 after 48 hrs by broth microdilution method; assay type: functional; details: E28, 48 h
structure (smiles),measurement,setting,value
O=[N+]([O-])c1cc(-c2nnn(Cc3ccc(F)cc3)n2)cc([N+](=O)[O-])c1,MIC,Klebsiella pneumoniae [1],> 500 µM
same,MIC99,Mycobacterium kansasii [2],2 µM
same,MIC,Candida albicans [3],> 500 µM
same,MIC,Candida albicans [4],> 500 µM
same,MIC,Escherichia coli [5],> 500 µM
same,MIC99,Mycobacterium kansasii [6],1 µM
same,MIC,[7],> 500 µM
same,MIC,[8],> 500 µM
same,MIC,Klebsiella pneumoniae [9],> 500 µM
same,MIC,Klebsiella pneumoniae [10],> 500 µM
same,MIC99,Mycobacterium kansasii [11],2 µM
same,IC50,CHO-K1,35 µM
same,MIC99,[12],0.25 µM
same,MIC,Pichia kudriavzevii [13],> 500 µM
same,MIC,Pseudomonas aeruginosa [14],> 500 µM
same,MIC,Aspergillus fumigatus [15],> 500 µM
same,MIC99,Mycobacterium avium [16],8 µM
same,MIC,Nakaseomyces glabratus [17],> 500 µM
same,MIC,Klebsiella pneumoniae [18],> 500 µM
same,MIC,Enterococcus sp. [19],> 500 µM
same,MIC,Staphylococcus aureus [20],> 500 µM
same,MIC,Escherichia coli [21],> 500 µM
same,MIC99,Mycobacterium avium [22],8 µM
same,MIC,Aspergillus fumigatus [23],> 500 µM
same,MIC,Pseudomonas aeruginosa [24],> 500 µM
same,MIC,[25],> 500 µM
same,MIC,Trichosporon asahii [26],> 500 µM
same,MIC99,[27],0.5 µM
same,MIC,Enterococcus sp. [28],> 500 µM
same,MIC,Staphylococcus aureus [29],> 500 µM
same,MIC,Lichtheimia corymbifera [30],> 500 µM
same,MIC,Nakaseomyces glabratus [31],> 500 µM
same,MIC,Candida tropicalis [32],> 500 µM
same,MIC,Trichosporon asahii [33],> 500 µM
same,MIC,[34],> 500 µM
same,MIC,Staphylococcus aureus [35],> 500 µM
same,MIC99,Mycobacterium kansasii [36],2 µM
same,MIC,Lichtheimia corymbifera [37],> 500 µM
same,MIC,Candida tropicalis [38],> 500 µM
same,MIC99,Mycobacterium kansasii [39],4 µM
same,MIC99,Mycobacterium kansasii [40],1 µM
same,MIC,Staphylococcus aureus [41],> 500 µM
same,MIC,Pichia kudriavzevii [42],> 500 µM
O=[N+]([O-])c1cc(-c2nnn(Cc3cccc(Br)c3)n2)cc([N+](=O)[O-])c1,MIC,Klebsiella pneumoniae [1],> 500 µM
same,MIC99,Mycobacterium kansasii [2],2 µM
same,MIC,Candida albicans [3],> 500 µM
same,MIC,Candida albicans [4],> 500 µM
same,MIC,Escherichia coli [5],> 500 µM
same,MIC99,Mycobacterium kansasii [6],0.5 µM
same,MIC,[7],250 µM
same,MIC,[8],> 500 µM
same,MIC,Klebsiella pneumoniae [9],> 500 µM
same,MIC,Klebsiella pneumoniae [10],> 500 µM
same,MIC99,Mycobacterium kansasii [11],1 µM
same,IC50,CHO-K1,29 µM
same,MIC99,[12],0.25 µM
same,MIC,Pichia kudriavzevii [13],> 500 µM
same,MIC,Pseudomonas aeruginosa [14],> 500 µM
same,MIC,Aspergillus fumigatus [15],> 500 µM
same,MIC99,Mycobacterium avium [16],8 µM
same,MIC,Nakaseomyces glabratus [17],> 500 µM
same,MIC,Klebsiella pneumoniae [18],> 500 µM
same,MIC,Enterococcus sp. [19],> 500 µM
same,MIC,Staphylococcus aureus [20],250 µM
same,MIC,Escherichia coli [21],> 500 µM
same,MIC99,Mycobacterium avium [22],4 µM
same,MIC,Aspergillus fumigatus [23],> 500 µM
same,MIC,Pseudomonas aeruginosa [24],> 500 µM
same,MIC,[25],> 500 µM
same,MIC,Trichosporon asahii [26],> 500 µM
same,MIC99,[27],0.25 µM
same,MIC,Enterococcus sp. [28],> 500 µM
same,MIC,Staphylococcus aureus [29],> 500 µM
same,MIC,Lichtheimia corymbifera [30],> 500 µM
same,MIC,Nakaseomyces glabratus [31],> 500 µM
same,MIC,Candida tropicalis [32],> 500 µM
same,MIC,Trichosporon asahii [33],> 500 µM
same,MIC,[34],250 µM
same,MIC,Staphylococcus aureus [35],> 500 µM
same,MIC99,Mycobacterium kansasii [36],2 µM
same,MIC,Lichtheimia corymbifera [37],> 500 µM
same,MIC,Candida tropicalis [38],> 500 µM
same,MIC99,Mycobacterium kansasii [39],2 µM
same,MIC99,Mycobacterium kansasii [40],1 µM
same,MIC,Staphylococcus aureus [41],250 µM
same,MIC,Pichia kudriavzevii [42],> 500 µM
Cc1ccc(Cn2nnc(-c3cc([N+](=O)[O-])cc([N+](=O)[O-])c3)n2)cc1,MIC,Klebsiella pneumoniae [1],> 500 µM
same,MIC99,Mycobacterium kansasii [2],1 µM
same,MIC,Candida albicans [3],> 500 µM
same,MIC,Candida albicans [4],> 500 µM
same,MIC,Escherichia coli [5],> 500 µM
same,MIC99,Mycobacterium kansasii [6],0.25 µM
same,MIC,[7],62.5 µM
same,MIC,[8],> 500 µM
same,MIC,Klebsiella pneumoniae [9],> 500 µM
same,MIC,Klebsiella pneumoniae [10],> 500 µM
same,MIC99,Mycobacterium kansasii [11],0.5 µM
same,IC50,CHO-K1,200 µM
same,MIC99,[12],0.125 µM
same,MIC,Pichia kudriavzevii [13],> 500 µM
same,MIC,Pseudomonas aeruginosa [14],> 500 µM
same,MIC,Aspergillus fumigatus [15],> 500 µM
same,MIC99,Mycobacterium avium [16],16 µM
same,MIC,Nakaseomyces glabratus [17],> 500 µM
same,MIC,Klebsiella pneumoniae [18],> 500 µM
same,MIC,Enterococcus sp. [19],> 500 µM
same,MIC,Staphylococcus aureus [20],31.2 µM
same,MIC,Escherichia coli [21],> 500 µM
same,MIC99,Mycobacterium avium [22],8 µM
same,MIC,Aspergillus fumigatus [23],> 500 µM
same,MIC,Pseudomonas aeruginosa [24],> 500 µM
same,MIC,[25],> 500 µM
same,MIC,Trichosporon asahii [26],> 500 µM
same,MIC99,[27],0.125 µM
same,MIC,Enterococcus sp. [28],> 500 µM
same,MIC,Staphylococcus aureus [29],> 500 µM
same,MIC,Lichtheimia corymbifera [30],> 500 µM
same,MIC,Nakaseomyces glabratus [31],> 500 µM
same,MIC,Candida tropicalis [32],> 500 µM
same,MIC,Trichosporon asahii [33],> 500 µM
same,MIC,[34],62.5 µM
same,MIC,Staphylococcus aureus [35],> 500 µM
same,MIC99,Mycobacterium kansasii [36],1 µM
same,MIC,Lichtheimia corymbifera [37],> 500 µM
same,MIC,Candida tropicalis [38],> 500 µM
same,MIC99,Mycobacterium kansasii [39],0.5 µM
same,MIC99,Mycobacterium kansasii [40],0.5 µM
same,MIC,Staphylococcus aureus [41],31.2 µM
same,MIC,Pichia kudriavzevii [42],> 500 µM
